Measurements: patent US20020052295A1, “Diacyl derivatives of propylene diamine having herbicidal activity” (priority 1999, published 2002)

Experiments:
Settings in all cases: lowest tested rate giving 80% or greater inhibition, approx. 14 days after planting and treating, greenhouse
PANMI = test: Pre-emergence herbicidal activity on PANMI (wild proso millet); assay type: in vivo, Panicum miliaceum
Outline: (§1)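 GR80 from percent growth inhibition versus untreated controls, rated about 14 days after planting and pre-emergence soil-surface application. Compound applied in 50:50 acetone:water over freshly covered seeds; pots kept in greenhouse at 30/21 °C day/night.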

SOLNI = test: Pre-emergence herbicidal activity on SOLNI (black nightshade); assay type: in vivo, Solanum nigrum
Outline: as §1

DATST = test: Pre-emergence herbicidal activity on DATST (jimsonweed); assay type: in vivo, Datura stramonium
Outline: as §1

CONAR = test: Pre-emergence herbicidal activity on CONAR (field bindweed); assay type: in vivo, Convolvulus arvensis
Source text: (§2) All such uses, and the biological activity enabling such uses, are embraced by the term “herbicidal” herein. Tables 15 and 16 summarize results of tests conducted as described below to determine the pre-emergence herbicidal activity, in the form of a GR80 value, of illustrative compounds of this invention. […] Where herbicidal activity was evident but 80% inhibition was not achieved at the highest rate tested (typically 1000 g/ha), an asterisk (*) is shown in the following tables. Herbicidal activity evident in the form of symptoms of phytotoxicity, in the absence of at least 80% inhibition at any rate, is indicated in the tables by “phyto”. A blank cell in the following tables indicates no herbicidal or phytotoxic response at any rate tested.
(§3) The pre-emergence tests were conducted by the following procedure. Topsoil was sieved to pass through a 1.27 cm screen. Fertilizer was added to the topsoil and the mixture was then sterilized by heating. The topsoil mixture was placed in a pot and compacted to a depth of 1.0 to 1.25 cm from the top of the pot. Seeds of each of several monocotyledonous and dicotyledonous annual plant species were placed on top of the soil. Additional soil was subsequently placed over the seeds to level-fill the pot. A known amount of each test compound dissolved or suspended in an appropriate organic solvent was diluted with a 50:50 mix of acetone and water and applied to the surface of the soil. After treatment the plants were placed in a greenhouse with a 30/21° C. day/night temperature regime where they received 0.64 cm of overhead irrigation. All subsequent watering consisted of a light overhead mist and/or subirrigation as needed for germination and growth.
(§4) Approximately 14 days after planting and treating, the plants were observed and herbicidal efficacy recorded as percent inhibition by comparison with untreated plants.
(§5) The plant species usually regarded as weeds which were utilized in the tests are identified in the tables below according to the following legend, in which “d” indicates a dicotyledonous species and “m” a monocotyledonous species. All monocotyledonous species included in the tests herein are grasses.

CHEAL = test: Pre-emergence herbicidal activity on CHEAL (common lambsquarters); assay type: in vivo, Chenopodium album
Outline: as §1

SETFA = test: Pre-emergence herbicidal activity on SETFA (giant foxtail); assay type: in vivo, Setaria faberi
Outline: as §1

POROL = test: Pre-emergence herbicidal activity on POROL (common purslane); assay type: in vivo, Portulaca oleracea
Outline: as §1

DIGSA = test: Pre-emergence herbicidal activity on DIGSA (large crabgrass); assay type: in vivo, Digitaria sanguinalis
Outline: as §1

BRAPP = test: Pre-emergence herbicidal activity on BRAPP (broadleaf signalgrass); assay type: in vivo, Brachiaria platyphylla
Source text: as §2, §3, §4, §5

PANDI = test: Pre-emergence herbicidal activity on PANDI (fall panicum); assay type: in vivo, Panicum dichotomiflorum
Outline: as §1

CIRAR = test: Pre-emergence herbicidal activity on CIRAR (canada thistle, seedling); assay type: in vivo, Cirsium arvense
Outline: as §1

AMARE = test: Pre-emergence herbicidal activity on AMARE (redroot pigweed); assay type: in vivo, Amaranthus retroflexus
Outline: as §1

ECHCG = test: Pre-emergence herbicidal activity on ECHCG (barnyardgrass); assay type: in vivo, Echinochloa crus-galli
Source text: as §2, §3, §4, §5

ABUTH = test: Pre-emergence herbicidal activity on ABUTH (velvetleaf); assay type: in vivo, Abutilon theophrasti
Outline: as §1

SORVU = test: Pre-emergence herbicidal activity on SORVU (shattercane); assay type: in vivo, Sorghum vulgare
Source text: as §2, §3, §4, §5

SORHA = test: Pre-emergence herbicidal activity on SORHA (johnsongrass, seedling); assay type: in vivo, Sorghum halepense
Source text: as §2, §3, §4, §5

SMILES | Pre-emergence activity (GR80) on PANMI (PANMI) | Pre-emergence activity (GR80) on SOLNI (SOLNI) | Pre-emergence activity (GR80) on DATST (DATST) [g/ha] | Pre-emergence activity (GR80) on CONAR (CONAR) | Pre-emergence activity (GR80) on CHEAL (CHEAL) [g/ha] | Pre-emergence activity (GR80) on SETFA (SETFA) [g/ha] | Pre-emergence activity (GR80) on PORAL (POROL) | Pre-emergence activity (GR80) on DIGSA (DIGSA) [g/ha] | Pre-emergence activity (GR80) on BRAPP (BRAPP) | Pre-emergence activity (GR80) on PANDI (PANDI) [g/ha] | Pre-emergence activity (GR80) on CIRAR (CIRAR) [g/ha] | Pre-emergence activity (GR80) on AMARE (AMARE) [g/ha] | Pre-emergence activity (GR80) on ECHCG (ECHCG) | Pre-emergence activity (GR80) on ABUTH (ABUTH) | Pre-emergence activity (GR80) on SORVU (SORVU) | Pre-emergence activity (GR80) on SORHA (SORHA)
Cc1c(Cl)cccc1C(=O)NC(C)CNC(=O)c1cccc(C(F)(F)F)c1 (stereo not shown) [Example 51] | 250 g/ha | 125 g/ha | 250 | 1000 g/ha | 64 | 250 | 64 g/ha | 64 | 500 g/ha | 250 | 125 | 125 | * (Where herbicidal activity was evident but 80% inhibition was not achieved at the highest rate tested (typically 1000 g/ha), an asterisk (*) is shown) | 250 g/ha | phyto | 1000 g/ha
Cc1c(Cl)cccc1C(=O)NC(C)CNC(=O)c1cccc(C(F)(F)F)c1F (stereo not shown) [Example 150] | 64 g/ha | 64 g/ha | 32 | 125 g/ha | 32 | 125 | 32 g/ha | 32 | * (Where herbicidal activity was evident but 80% inhibition was not achieved at the highest rate tested (typically 1000 g/ha), an asterisk (*) is shown) | 125 | 125 | 32 | * (Where herbicidal activity was evident but 80% inhibition was not achieved at the highest rate tested (typically 1000 g/ha), an asterisk (*) is shown) | 1000 g/ha | phyto | * (Where herbicidal activity was evident but 80% inhibition was not achieved at the highest rate tested (typically 1000 g/ha), an asterisk (*) is shown)
CC(CNC(=O)c1cccc(C(F)(F)F)c1)NC(=O)c1cccc(OC(F)(F)F)c1 (stereo not shown) [Example 72] | phyto | – | 1000 | * (Where herbicidal activity was evident but 80% inhibition was not achieved at the highest rate tested (typically 1000 g/ha), an asterisk (*) is shown) | 500 | 500 | 250 g/ha | 250 | 1000 g/ha | 500 | 500 | 125 | phyto | 1000 g/ha | phyto | * (Where herbicidal activity was evident but 80% inhibition was not achieved at the highest rate tested (typically 1000 g/ha), an asterisk (*) is shown)
Cc1c(F)cccc1C(=O)NC(C)CNC(=O)c1cccc(C(F)(F)F)c1 (stereo not shown) [Example 38] | 250 g/ha | 250 g/ha | 125 | 250 g/ha | 64 | 250 | 32 g/ha | 125 | 250 g/ha | 250 | 125 | 32 | 1000 g/ha | 125 g/ha | * (Where herbicidal activity was evident but 80% inhibition was not achieved at the highest rate tested (typically 1000 g/ha), an asterisk (*) is shown) | 500 g/ha
COc1c(F)cccc1C(=O)NC(C)CNC(=O)c1cccc(C(F)(F)F)c1 (stereo not shown) [Example 40] | phyto | phyto | 1000 | phyto | 750 | 1000 | * (Where herbicidal activity was evident but 80% inhibition was not achieved at the highest rate tested (typically 1000 g/ha), an asterisk (*) is shown) | – | * (Where herbicidal activity was evident but 80% inhibition was not achieved at the highest rate tested (typically 1000 g/ha), an asterisk (*) is shown) | 750 | – | 750 | phyto | phyto | phyto | phyto
CC(CNC(=O)c1cccc(C(F)(F)F)c1)NC(=O)c1cccc(Cl)c1Cl (stereo not shown) [Example 50] | 1000 g/ha | 125 g/ha | 125 | 250 g/ha | 32 | 750 | 32 g/ha | 125 | 500 g/ha | 250 | 64 | 32 | * (Where herbicidal activity was evident but 80% inhibition was not achieved at the highest rate tested (typically 1000 g/ha), an asterisk (*) is shown) | 750 g/ha | * (Where herbicidal activity was evident but 80% inhibition was not achieved at the highest rate tested (typically 1000 g/ha), an asterisk (*) is shown) | 1000 g/ha
Cc1ccc(Cl)cc1C(=O)NC(C)CNC(=O)c1cccc(C(F)(F)F)c1 (stereo not shown) [Example 47] | 250 g/ha | 125 g/ha | 250 | 750 g/ha | 64 | 250 | 125 g/ha | 125 | 500 g/ha | 250 | 125 | 64 | phyto | 250 g/ha | phyto | 750 g/ha
